In ChEMBL document CHEMBL1201862, “PubChem BioAssay data set” (2004):
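96-well plates; 48 h exposure; 5 concentrations. Endpoints by linear interpolation between flanking doses. Not reached: highest tested concentration assigned. GI50 is the concentration that inhibits growth by half.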 Calls of active or inactive are those of the source. Rule as the data show it: active = GI50 up to about 1.1 µM and inactive = higher.

Key:
Assay in all cases: NCI-60 cell line screen, 48 h
[1] = system: COLO 205
[2] = system: UACC-257
[3] = system: SF-295
[4] = system: HCT-15
[5] = system: OVCAR-8
[6] = system: UACC-62
[7] = system: EKVX
[8] = system: CAKI-1
[9] = system: UO-31
[10] = system: U-251
[11] = system: IGROV-1
[12] = system: MOLT-4
[13] = system: M14
[14] = system: SK-MEL-2
[15] = system: SW-620
[16] = system: SNB-19
[17] = system: DU-145
[18] = system: PC-3
[19] = system: MDA-MB-435
[20] = system: T47D

Row | Compound | GI50 [1] | GI50 [2] | GI50 [3] | GI50 [4] | GI50 [5] | GI50 [6] | GI50 [7] | GI50 [8] | GI50 [9] | GI50 [10] | GI50 [11] | GI50 [12] | GI50 [13] | GI50 [14] | GI50 [15] | GI50 [16] | GI50 [17] | GI50 [18] | GI50 [19] | GI50 [20]
1 | CCCCCCCCC/C=C1\CCC(CN(C)C)C1=O (stereo not drawn) | 2.29 µM (inactive) | 1.69 µM (inactive) | 3.22 µM (inactive) | 2.22 µM | 1.69 µM (inactive) | 2.48 µM (inactive) | 2.47 µM (inactive) | 2.25 µM (inactive) | 2.02 µM (inactive) | 1.66 µM (inactive) | 2.63 µM (inactive) | 2.62 µM (inactive) | 1.84 µM (inactive) | 2.72 µM (inactive) | 1.58 µM (inactive) | 5.87 µM (inactive) | – | – | – | –
2 | O=S(=O)(/C=C/c1ccc(F)cc1)Cc1ccc(CS(=O)(=O)/C=C/c2ccc(F)cc2)cc1 | > 100 µM (inactive) | > 100 µM (inactive) | > 100 µM (inactive) | > 100 µM | > 100 µM (inactive) | > 100 µM (inactive) | > 100 µM (inactive) | > 100 µM (inactive) | > 100 µM (inactive) | > 100 µM (inactive) | > 100 µM (inactive) | > 100 µM (inactive) | > 100 µM (inactive) | > 100 µM (inactive) | > 100 µM (inactive) | > 100 µM (inactive) | – | – | – | –
3 | CCN(CC)c1ccc2cc(C(=O)Nc3ccccc3OC)c(=N)oc2c1 | 24.8 µM (inactive) | 40.8 µM (inactive) | 33.9 µM (inactive) | 19.7 µM | 3.61 µM (inactive) | 25.2 µM (inactive) | 32.8 µM (inactive) | 23.7 µM (inactive) | 0.321 µM (active) | 10.1 µM (inactive) | 7.55 µM (inactive) | 3.24 µM (inactive) | 35.2 µM (inactive) | 59.7 µM (inactive) | 8.67 µM (inactive) | 16.1 µM (inactive) | 28.2 µM (inactive) | 11.8 µM (inactive) | 34.2 µM (inactive) | –
4 | CN1C=C(C(N)=O)C2CC(O)[C@@](NC(=O)CS(N)(=O)=O)(C(=O)O)C2C1 (stereo partly drawn) | 14.1 µM (inactive) | 5.24 µM (inactive) | 2.75 µM (inactive) | 8.91 µM | 5.9 µM (inactive) | 2.17 µM (inactive) | 4.19 µM (inactive) | 5.46 µM (inactive) | 3.05 µM (inactive) | 3.05 µM (inactive) | 2.73 µM (inactive) | 1.7 µM (inactive) | 1.49 µM (inactive) | 2.92 µM (inactive) | 3.87 µM (inactive) | 2.79 µM (inactive) | – | – | – | –
5 | NC(CCC(=O)NC(CSSCCCCS(=O)O)C(=O)NCC(=O)O)C(=O)O (stereo not drawn) | > 100 µM (inactive) | > 100 µM (inactive) | > 100 µM (inactive) | > 100 µM | > 100 µM (inactive) | > 100 µM (inactive) | > 100 µM (inactive) | > 100 µM (inactive) | > 100 µM (inactive) | > 100 µM (inactive) | > 100 µM (inactive) | 29.5 µM (inactive) | > 100 µM (inactive) | > 100 µM (inactive) | > 100 µM (inactive) | > 100 µM (inactive) | – | – | – | –
6 | COc1cc2c(oc(=O)c3cc4ccoc4c(OC)c32)c2cccc(O)c12 | > 100 µM (inactive) | > 100 µM (inactive) | > 100 µM (inactive) | > 100 µM | > 100 µM (inactive) | > 100 µM (inactive) | > 100 µM (inactive) | > 100 µM (inactive) | > 100 µM (inactive) | > 100 µM (inactive) | > 100 µM (inactive) | > 100 µM (inactive) | > 100 µM (inactive) | > 100 µM (inactive) | > 100 µM (inactive) | > 100 µM (inactive) | – | – | – | –
7 | CC(=O)OC1COC(N2C(=O)C(=O)c3cc(Br)ccc32)C(OC(C)=O)C1OC(C)=O (stereo not drawn) | > 100 µM (inactive) | > 100 µM (inactive) | > 100 µM (inactive) | > 100 µM | > 100 µM (inactive) | > 100 µM (inactive) | > 100 µM (inactive) | > 100 µM (inactive) | > 100 µM (inactive) | > 100 µM (inactive) | > 100 µM (inactive) | 96.8 µM (inactive) | > 100 µM (inactive) | > 100 µM (inactive) | > 100 µM (inactive) | > 100 µM (inactive) | – | – | – | –
8 | COc1ccc(-c2cc(-c3ccncc3)nc(N)c2-c2ccc(F)cc2)cc1 | 5.43 µM (inactive) | 24.2 µM (inactive) | 80.9 µM (inactive) | 8.91 µM | 41.3 µM (inactive) | 71.4 µM (inactive) | > 100 µM (inactive) | 32.3 µM (inactive) | 17.3 µM (inactive) | > 100 µM (inactive) | 10.6 µM (inactive) | 73.3 µM (inactive) | 42 µM (inactive) | 36 µM (inactive) | 9.18 µM (inactive) | 41.5 µM (inactive) | – | 67.1 µM (inactive) | 21.2 µM (inactive) | 80.9 µM (inactive)
9 | COc1cc(C2=C(C#N)C(N)OC3=C2COc2ccccc23)cc(OC)c1OC (stereo not drawn) | > 100 µM (inactive) | 31.3 µM (inactive) | – | > 100 µM | – | 50.4 µM (inactive) | 16.2 µM (inactive) | – | 4.15 µM (inactive) | 14.7 µM (inactive) | 22.9 µM (inactive) | 3.16 µM (inactive) | 42 µM (inactive) | 28.5 µM (inactive) | 50.1 µM (inactive) | 9.29 µM (inactive) | 10.6 µM (inactive) | 16.6 µM (inactive) | 34.3 µM (inactive) | –
10 | COc1ccccc1NC(=O)C1=C(C)NC(C)=C(C(=O)Nc2ccccc2OC)C1c1ccccc1OC | 36.9 µM (inactive) | > 100 µM (inactive) | > 100 µM (inactive) | > 100 µM | > 100 µM (inactive) | > 100 µM (inactive) | > 100 µM (inactive) | > 100 µM (inactive) | > 100 µM (inactive) | > 100 µM (inactive) | > 100 µM (inactive) | 54.5 µM (inactive) | > 100 µM (inactive) | > 100 µM (inactive) | > 100 µM (inactive) | > 100 µM (inactive) | – | – | – | –
11 | Cc1cc(C)[n+](CCOc2ccc(/C(=C(/Cl)c3ccccc3)c3ccccc3)cc2)c(C)c1.[O-][Cl+3]([O-])([O-])[O-] | 0.292 µM (active) | 0.692 µM (active) | 2.47 µM (inactive) | 13.4 µM | 1.33 µM (inactive) | 0.741 µM (active) | 0.887 µM (active) | 4.49 µM (inactive) | 14.8 µM (inactive) | 0.685 µM (active) | 0.612 µM (active) | 1.28 µM (inactive) | 2 µM (inactive) | 0.865 µM (active) | 0.891 µM (active) | 0.865 µM (active) | – | – | – | –
12 | COC(=O)C(C(=O)C(N)=O)c1csc(-n2nc(-c3ccccc3)cc2-c2ccccc2)n1 (stereo not drawn) | 26.8 µM (inactive) | 19.8 µM (inactive) | > 87.9 µM (inactive) | > 31.6 µM | 30.4 µM (inactive) | > 31.6 µM (inactive) | 13.9 µM (inactive) | 10.6 µM (inactive) | 13.5 µM (inactive) | 24.5 µM (inactive) | 17.3 µM (inactive) | 25.5 µM (inactive) | > 31.6 µM (inactive) | > 31.6 µM (inactive) | 4.4 µM (inactive) | 12.5 µM (inactive) | – | – | – | –
